Assay results reported in publication PMC12433258, “Binding Differences of the Peptide‐Substrate–Binding Domain of Collagen Prolyl 4‐Hydroxylases I and II for Proline‐ and Hydroxyproline‐Rich Peptides” (Proteins, 2025).
Where two headings read alike, the source gives them in different places. No end group written: not given here.

Legend:
PSB‐I construct = conditions: previous C‐P4H peptide binding studies; cited from earlier work
Excerpt: (§1) Prolines that occur in the PxGP motif cannot be hydroxylated by the C‐P4H catalytic domain, as they are in the X‐position of the XYG‐repeat and the x‐residue at the Y‐position cannot be a proline. […] Low affinity of the (Gly‐Pro‐4Hyp)5 peptide for the PSB co ...

C‐P4H‐I = conditions: cited from earlier work
Excerpt: as §1

C‐P4H‐II = conditions: cited from earlier work
Excerpt: as §1

PSB‐II construct = conditions: previous C‐P4H peptide binding studies; cited from earlier work
Excerpt: as §1

[1] = biological target: T1, PSB‐I^143–238 construct (peptide‐substrate–binding domain of C‐P4H‐I α‐subunit) (Homo sapiens, UniProt P13674); assay: ITC binding of proline‐rich peptides to the PSB‐I^143–238 construct; conditions: 25°C, 20 mM Bis‐Tris, 100 mM glycine; for ΔG / ΔH / −TΔS: pH 6.8, fixed n = 1, average ± SD of three measurements
T1 construct: made in house; host or cells: E. coli Rosetta(DE3)pLysS, pET22b(+)
Excerpt: The PSB‐I^143–238 construct was cloned using standard molecular biology protocols, and a codon‐optimized P4ha1 cDNA for the full‐length C‐P4H‐I α‐subunit (GenScript Biotech Corporation, New Jersey, USA) was used as the template. This construct was amplified using a forward primer containing an NdeI site (underlined) (5′‐[…]‐3′) and a reverse primer containing an XhoI site (underlined) (5′‐[…]‐3′). The amplified product was digested with NdeI and XhoI and ligated into a pET22b(+) plasmid (Novagen, Wisconsin, USA) in‐frame with a C‐terminal His6‐tag, and its sequence (Ser143‐Glu238 (Figure 1A), with C‐terminal Leu‐Glu‐His6–tag) was verified by DNA sequencing in the Biocenter Oulu Sequencing Centre. PSB‐I^143–238 was expressed using Rosetta(DE3)pLysS cells in LB medium containing 100 μg/mL ampicillin and 34 μg/mL chloramphenicol. The cells were grown at 37°C using a shaker at 200 rpm until the OD600 reached 0.6–0.8, after which protein expression was induced using 1‐mM isopropyl β‐D‐1‐thiogalactopyranoside and incubated at 30°C for another 4 h. The cells were harvested and resuspended in 20 mL of 20‐mM Bis‐Tris, 100 mM glycine, pH 6.8 lysis buffer. After cell lysis by sonication, the supernatant was loaded onto a 20 mL Ni‐NTA chelating Sepharose column, pre‐equilibrated with the lysis buffer. Unbound proteins were washed away with 100 mL of the same buffer, and the bound proteins were eluted with a 100 mL linear imidazole gradient (0.0–0.5 M). The eluted fractions were analyzed by SDS‐PAGE to identify PSB‐I containing fractions, which were pooled, concentrated using the Amicon ultracentrifugal filter ([…] molecular weight cut‐off) and loaded on a Superdex75 16/600 preparative grade size‐exclusion chromatography (SEC) column (GE Healthcare, Chicago, USA), pre‐equilibrated with a 20 mM Bis‐Tris, 100 mM glycine, pH 6.8, SEC buffer. Fractions with PSB‐I^143–238 of high purity, based on SDS‐PAGE analysis, were pooled and concentrated to about 22 mg/mL (measured with a NanoDrop 1000, Thermo Scientific, Waltham, USA) and stored in the SEC buffer in 100 μL aliquots at −70°C. All characterizations, crystallization, and crystal testing experiments described below were performed in the Biocenter Oulu core facilities.
(§2) The peptides used in these studies were purchased from TAG Copenhagen A/S (Frederiksberg, Denmark). These peptides (9 residues) start with a free amino group and end with a free carboxylate group. The correct mass and the purity of the peptides (> 95% pure) were analyzed by the company using HPLC and mass spectrometry.
The protein samples of the PSB‐I^143–238 and PSB‐II constructs were prepared at a concentration of 50 μM in SEC buffer, being 20 mM Bis‐Tris, 100 mM glycine, pH 6.8 for PSB‐I^143–238 and 20 mM Tris, 50 mM NaCl, 50 mM glycine, pH 8.0 for PSB‐II (as described earlier). The peptides were dissolved in SEC buffer at a concentration of 3 mM by diluting a 100 mM stock solution in water with SEC buffer. The ITC measurements were carried out at 25°C, using the MicroCal iTC‐200 (Malvern Panalytical Ltd., Malvern, UK). The peptide solution was titrated into a sample cell of 200 μL volume from a syringe that was rotating at 750 rpm. First, 0.4 μL of the peptide solution was injected with a duration of 0.8 s; then, 12 consecutive injections were done, each with a volume of 3 μL, a duration of 6 s, and 180 s spacing time between each injection. For each peptide, at first only buffer in the sample cell (without protein) was titrated, and data were collected as control. Then the data for the PSB sample titrated with the peptide‐containing buffer were collected. The titration data were processed with Origin 7 (OriginLab, Massachusetts, USA) specifically designed for ITC data analysis. The control data that measured the residual heat effect from the peptide dilution were subtracted from the data of the peptide titration with PSB in the sample cell. […]

[2] = biological target: T2, PSB‐II^142–236 construct (peptide‐substrate–binding domain of C‐P4H‐II α‐subunit) (Homo sapiens, UniProt O15460); conditions: ITC, data described previously, average ± SD of three measurements; cited from earlier work
T2 construct: Met-His6 (N); made in house

[3] = biological target: DD‐I construct (double domain construct of the α‐subunit of C‐P4H‐I); conditions: calorimetric binding, reported previously; read-out: Affinity (K D) for the PSB‐I domain of the DD‐I construct; cited from earlier work
Excerpt: The affinity properties of the PSB‐I and PSB‐II constructs, as obtained from ITC peptide binding experiments, are shown in Table 2 and Figure S3.

[4] = biological target: T2, PSB‐II^142–236 construct (peptide‐substrate–binding domain of C‐P4H‐II α‐subunit); assay: ITC binding of proline‐rich peptides to the PSB‐II construct; conditions: 25°C, 50 μM protein, 3 mM peptide, 20 mM Tris, 50 mM NaCl, 50 mM glycine, pH 8.0, one‐set‐of‐sites, fixed n = 1, average ± SD of three measurements
Excerpt: Additional experiments were done with a longer PSB‐I construct, PSB‐I^144–244 (residues Phe144‐Ser244 (Figure 1A), extended by a C‐terminal Leu‐Glu‐(His)6–tag) and with the PSB‐II^142–236 construct (residues Met142‐Glu236 (Figure 1A), preceded at the N‐terminus by a Met‐His6–tag). The expression and purification protocols for the PSB‐I^144–244 construct and the PSB‐II^142–236 construct have been described earlier.
as §2
The protein samples of the PSB‐I^143–238 and PSB‐II constructs were prepared at a concentration of 50 μM in SEC buffer, being 20 mM Bis‐Tris, 100 mM glycine, pH 6.8 for PSB‐I^143–238 and 20 mM Tris, 50 mM NaCl, 50 mM glycine, pH 8.0 for PSB‐II (as described earlier). […] The control data that measured the residual heat effect from the peptide dilution were subtracted from the data of the peptide titration with PSB in the sample cell. The integrated data were analyzed using the one‐set‐of‐sites fitting model with a fixed stoichiometry (n = 1). […]

T1 sequence (P13674 160-255): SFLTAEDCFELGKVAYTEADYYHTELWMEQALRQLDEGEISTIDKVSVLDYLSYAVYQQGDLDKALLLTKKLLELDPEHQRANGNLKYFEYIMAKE
T2 sequence (O15460 163-257): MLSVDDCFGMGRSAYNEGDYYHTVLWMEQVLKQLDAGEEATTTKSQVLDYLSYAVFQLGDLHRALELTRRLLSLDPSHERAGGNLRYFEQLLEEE

| ΔG [1] | ΔH [1] | −TΔS [1] | Molecule | other results |
| --- | --- | --- | --- | --- |
| – | – | – | (Gly‐Pro‐4Hyp)5 [model peptide with a hydroxyproline at the Y‐position of each tripeptide repeat] | Affinity for the PSB‐I construct relative to (PPG)5 (PSB‐I construct): much lower affinity than the (PPG)5 substrate peptide; Substrate of C‐P4H‐I (C‐P4H‐I): not a substrate; Substrate of C‐P4H‐II (C‐P4H‐II): not a substrate; Affinity for the PSB‐II construct relative to (PPG)5 (PSB‐II construct): much lower affinity than the (PPG)5 substrate peptide |
| -6.06 ± 0.04 kcal/mol | -14.9 ± 0.4 kcal/mol | 8.87 ± 0.37 kcal/mol | PPGPRGPPG [PPG‐PRG‐PPG] | – |
| -5.59 ± 0.10 kcal/mol | -9.5 ± 0.8 kcal/mol | 3.95 ± 0.82 kcal/mol | PPPPPPPPP [P9, (Pro)9 peptide] | Kd [2]: > 1500 µM; Kd [3]: 9.8 µM |
| -4.83 ± 0.06 kcal/mol | -13.6 ± 1.7 kcal/mol | 8.77 ± 1.66 kcal/mol | PPGPPGPPG [(PPG)3, PPG‐PPG‐PPG peptide] | K D [2]: Not detectable; Kd [3]: 144 µM |
| -5.60 ± 0.08 kcal/mol | -12.7 ± 0.2 kcal/mol | 7.07 ± 0.25 kcal/mol | C[C@H](NC(=O)[C@@H]1CCCN1C(=O)CNC(=O)[C@@H]1C[C@@H](O)CN1C(=O)[C@@H]1CCCN1)C(=O)NCC(=O)N1CCC[C@H]1C(=O)N1C[C@H](O)C[C@H]1C(=O)NCC(=O)O [POG‐PAG‐POG] | Kd [4]: 26.2 ± 1.9 µM; Kd ([1]; 50 μM protein in cell, 3 mM peptide in syringe, pH 6.8, one‐set‐of‐sites model, fixed n = 1, average ± SD of three measurements): 79.6 ± 9.6 µM |
| -5.57 ± 0.02 kcal/mol | -13.2 ± 1.2 kcal/mol | 7.67 ± 1.17 kcal/mol | PPGPEGPPG [PPG‐PEG‐PPG] | – |
| -5.51 ± 0.02 kcal/mol | -12.4 ± 0.5 kcal/mol | 6.86 ± 0.49 kcal/mol | C[C@H](NC(=O)[C@@H]1CCCN1C(=O)CNC(=O)[C@@H]1CCCN1C(=O)[C@@H]1CCCN1)C(=O)NCC(=O)N1CCC[C@H]1C(=O)N1CCC[C@H]1C(=O)NCC(=O)O [PPG‐PAG‐PPG] | – |
